# Assay results: US10758534B2 (Vertex Pharmaceuticals Incorporated, priority 2014, dated 2020)
# Where two headings read alike, the source gives them in different places.
# Biological target: T1, F508del (Homo sapiens, UniProt P13569, DEL508-508)
# T1 construct: expressed in transfected cells
# Experiment: Protocol 2: FRET membrane potential optical assay (VIPR), identification of correction compounds
# Type: cell-based
# In short: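 NIH3T3 mouse fibroblasts stably expressing F508del-CFTR incubated with compound 16 h at 37 °C in serum-free medium, then loaded with CC2-DMPE/DiSBAC2(3) FRET dyes. Channel activated with 10 μM forskolin plus 20 μM genistein in Cl⁻-free (gluconate) bath; depolarisation from Cl⁻ efflux read on VIPR II.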
# [1] = Table 3, compounds of Table 1 as modulators of CFTR activity, protocol not stated
# [2] = F508del CFTR modulator activity, compounds of Table 1, read-out: EC30
# T1 sequence (P13569 with tags, fused parts or gaps DEL508-508): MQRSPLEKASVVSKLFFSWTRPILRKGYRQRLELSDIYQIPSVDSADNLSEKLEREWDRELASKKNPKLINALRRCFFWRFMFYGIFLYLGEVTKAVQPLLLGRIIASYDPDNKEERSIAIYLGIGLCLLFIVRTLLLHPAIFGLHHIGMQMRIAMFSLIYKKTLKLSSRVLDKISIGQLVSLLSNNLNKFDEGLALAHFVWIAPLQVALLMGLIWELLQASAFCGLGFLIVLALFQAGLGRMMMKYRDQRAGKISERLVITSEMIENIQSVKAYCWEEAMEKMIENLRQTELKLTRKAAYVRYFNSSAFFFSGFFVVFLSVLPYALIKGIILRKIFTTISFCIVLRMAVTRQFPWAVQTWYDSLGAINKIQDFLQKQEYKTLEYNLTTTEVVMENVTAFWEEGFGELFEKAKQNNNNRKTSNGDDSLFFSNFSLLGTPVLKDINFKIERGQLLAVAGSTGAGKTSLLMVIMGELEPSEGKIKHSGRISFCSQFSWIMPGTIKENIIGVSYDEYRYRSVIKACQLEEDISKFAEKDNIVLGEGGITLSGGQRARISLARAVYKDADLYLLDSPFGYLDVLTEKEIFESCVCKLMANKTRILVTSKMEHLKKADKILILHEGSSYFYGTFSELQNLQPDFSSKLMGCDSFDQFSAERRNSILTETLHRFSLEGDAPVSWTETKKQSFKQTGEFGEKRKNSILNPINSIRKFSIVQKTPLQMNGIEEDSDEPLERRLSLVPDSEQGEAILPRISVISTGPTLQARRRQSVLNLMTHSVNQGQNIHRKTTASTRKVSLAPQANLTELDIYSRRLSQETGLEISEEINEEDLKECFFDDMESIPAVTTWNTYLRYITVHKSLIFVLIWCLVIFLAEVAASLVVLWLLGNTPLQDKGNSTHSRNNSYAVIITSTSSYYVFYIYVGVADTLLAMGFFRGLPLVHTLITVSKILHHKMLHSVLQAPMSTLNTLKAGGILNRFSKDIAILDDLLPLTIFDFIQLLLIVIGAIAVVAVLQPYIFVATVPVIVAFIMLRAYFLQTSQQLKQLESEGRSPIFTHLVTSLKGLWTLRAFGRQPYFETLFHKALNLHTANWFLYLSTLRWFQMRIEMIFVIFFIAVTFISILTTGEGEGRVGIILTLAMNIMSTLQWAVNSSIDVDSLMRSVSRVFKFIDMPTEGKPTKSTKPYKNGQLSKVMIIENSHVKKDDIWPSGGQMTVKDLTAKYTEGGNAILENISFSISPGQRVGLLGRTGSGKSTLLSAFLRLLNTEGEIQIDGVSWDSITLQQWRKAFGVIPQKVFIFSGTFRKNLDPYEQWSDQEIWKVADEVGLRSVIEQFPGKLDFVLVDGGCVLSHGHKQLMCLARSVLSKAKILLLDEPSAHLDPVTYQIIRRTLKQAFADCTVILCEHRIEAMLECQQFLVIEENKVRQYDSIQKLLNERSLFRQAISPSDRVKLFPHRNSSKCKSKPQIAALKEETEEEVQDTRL
EC30 [1],EC30 [2] [nM],SMILES
+++ (“+++” means <3 uM),–,"Cc1cccc(C)c1Cn1nc(-c2ccccc2C(F)(F)F)cc1C(=O)NS(=O)(=O)c1ccccc1 [Compound 369, N-(benzenesulfonyl)-2-[(2,6-dimethylphenyl)methyl]-5-[2-(trifluoromethyl)phenyl]pyrazole-3-carboxamide]"
–,< 3000,"CC1CN(c2ncccc2C(=O)NS(=O)(=O)c2cccc(OCc3ccc(C(C)C)cc3)n2)C(C)(C)C1 (stereo not shown) [Compound 2415, N—[[6-[(4-isopropylphenyl)methoxy]-2-pyridyl]sulfonyl]-2-(2,2,4-trimethylpyrrolidin-1-yl)pyridine-3-carboxamide]"
+++ (“+++” means <3 uM),–,"COc1c(F)cccc1-c1ccc(C(=O)NS(=O)(=O)c2cccc(N)n2)c(Oc2c(C)cc(C)cc2C)n1 [Compound 396, N-[(6-amino-2-pyridyl)sulfonyl]-6-(3-fluoro-2-methoxy-phenyl)-2-(2,4,6-trimethylphenoxy)pyridine-3-carboxamide]"
+++ (“+++” means <3 uM),–,"CCOc1cccc2c1CN(Cc1c(C)cc(C)cc1C)C2(C)C(=O)NS(=O)(=O)c1cccnc1OC (stereo not shown) [Compound 648, 4-ethoxy-N-[(2-methoxy-3-pyridyl)sulfonyl]-1-methyl-2-[(2,4,6-trimethylphenyl)methyl]isoindoline-1-carboxamide]"
–,3000 to 10000,"Cc1cccc(-c2ccc(C(=O)NS(=O)(=O)c3ccc[nH]c3=O)c(N3C[C@@H](C)CC3(C)C)n2)c1O [Compound 2300, 6-(2-hydroxy-3-methyl-phenyl)-N-[(2-oxo-1H-pyridin-3-yl)sulfonyl]-2-[(4S)-2,2,4-trimethylpyrrolidin-1-yl]pyridine-3-carboxamide]"
–,3000 to 10000,"CC1CN(c2ncccc2C(=O)NS(=O)(=O)c2cccc(Nc3cccc4cnccc34)n2)C(C)(C)C1 (stereo not shown) [Compound 2274, N—[[6-(5-isoquinolylamino)-2-pyridyl]sulfonyl]-2-(2,2,4-trimethylpyrrolidin-1-yl)pyridine-3-carboxamide]"
–,3000 to 10000,"COC(=O)C1CCN(c2cccc(S(=O)(=O)NC(=O)c3cccnc3N3CC(C)CC3(C)C)n2)CC1 (stereo not shown) [Compound 2442, methyl 1-[6-[[2-(2,2,4-trimethylpyrrolidin-1-yl)pyridine-3-carbonyl]sulfamoyl]-2-pyridyl]piperidine-4-carboxylate]"
+++ (“+++” means <3 uM),–,"Cc1cc(C)c(Cn2nc(C(C)(C)C)cc2C(=O)NS(=O)(=O)c2cccc(N(C)C)c2)c(C)c1 [Compound 270, 5-tert-butyl-N-[3-(dimethylamino)phenyl]sulfonyl-2-[(2,4,6-trimethylphenyl)methyl]pyrazole-3-carboxamide]"
–,3000 to 10000,"C[C@@H]1CN(c2nc(-c3cnc(N(C)C)nc3)ccc2C(=O)NS(=O)(=O)c2cccnc2N)C(C)(C)C1 [Compound 2021, N-[(2-amino-3-pyridyl)sulfonyl]-6-[2-(dimethylamino)pyrimidin-5-yl]-2-[(4S)-2,2,4-trimethylpyrrolidin-1-yl]pyridine-3-carboxamide]"
++ (“++” means between 3 uM and 10 uM),–,"COc1cccc(S(=O)(=O)NC(=O)C2c3ccccc3CN2Cc2c(C)cc(C)cc2C)n1 (stereo not shown) [Compound 174, N-[(6-methoxy-2-pyridyl)sulfonyl]-2-[(2,4,6-trimethylphenyl)methyl]isoindoline-1-carboxamide]"
–,< 3000,"CC1CN(c2ncccc2C(=O)NS(=O)(=O)c2cccc(N(C)C(C)C)n2)C(C)(C)C1 (single isomer, unassigned) [Compound 2724]"
–,< 3000,"C[C@@H]1CN(c2nc(-c3ccccc3O)ccc2C(=O)NS(=O)(=O)c2cccc(N)n2)C(C)(C)C1 [Compound 2555, N-[(6-amino-2-pyridyl)sulfonyl]-6-(2-hydroxyphenyl)-2-[(4S)-2,2,4-trimethylpyrrolidin-1-yl]pyridine-3-carboxamide]"
–,< 3000,"C[C@@H]1CN(c2nc(-c3ccc(F)cc3)ccc2C(=O)NS(=O)(=O)c2cccnc2N)C(C)(C)C1 [Compound 2435, N-[(2-amino-3-pyridyl)sulfonyl]-6-(4-fluorophenyl)-2-[(4S)-2,2,4-trimethylpyrrolidin-1-yl]pyridine-3-carboxamide]"
–,< 3000,"CCCOc1ccc(-c2cnc(N3CC(C)CC3(C)C)c(C(=O)NS(=O)(=O)c3cccc(N)n3)c2)cc1C (stereo not shown) [Compound 2095, N-[(6-amino-2-pyridyl)sulfonyl]-5-(3-methyl-4-propoxy-phenyl)-2-(2,2,4-trimethylpyrrolidin-1-yl)pyridine-3-carboxamide]"
++ (“++” means between 3 uM and 10 uM),–,"COc1cc2cc(C(=O)NS(=O)(=O)c3cccc(N)c3)n(Cc3c(C)cc(C)cc3C)c2cc1OC [Compound 598, N-(3-aminophenyl)sulfonyl-5,6-dimethoxy-1-[(2,4,6-trimethylphenyl)methyl]indole-2-carboxamide]"
–,< 3000,"CC1CN(c2ncccc2C(=O)NS(=O)(=O)c2cccc(Nc3ccc(Cl)cc3Cl)n2)C(C)(C)C1 (stereo not shown) [Compound 2217, N—[[6-(2,4-dichloroanilino)-2-pyridyl]sulfonyl]-2-(2,2,4-trimethylpyrrolidin-1-yl)pyridine-3-carboxamide]"
–,< 3000,"COc1cc(F)cc(-c2ccc(C(=O)NS(=O)(=O)c3ccc[nH]c3=O)c(N3C[C@@H](C)CC3(C)C)n2)c1 [Compound 2527, 6-(3-fluoro-5-methoxy-phenyl)-N-[(2-oxo-1H-pyridin-3-yl)sulfonyl]-2-[(4S)-2,2,4-trimethylpyrrolidin-1-yl]pyridine-3-carboxamide]"
–,< 3000,"C[C@@H]1CN(c2nc(-c3ccccc3OC(F)(F)F)ccc2C(=O)NS(=O)(=O)c2ccc[nH]c2=O)C(C)(C)C1 [Compound 2514, N-[(2-oxo-1H-pyridin-3-yl)sulfonyl]-6-[2-(trifluoromethoxy)phenyl]-2-[(4S)-2,2,4-trimethylpyrrolidin-1-yl]pyridine-3-carboxamide]"
+++ (“+++” means <3 uM),–,"Cc1cc(C)c(Oc2nc(-c3ccccc3)ccc2C(=O)NS(=O)(=O)c2ccc[nH]c2=O)c(C)c1 [Compound 654, N-[(2-oxo-1H-pyridin-3-yl)sulfonyl]-6-phenyl-2-(2,4,6-trimethylphenoxy)pyridine-3-carboxamide]"

SMILES,EC30 [1],EC30 [2] [nM]
"CC(C)COc1cc(F)cc(-c2ccc(C(=O)NS(=O)(=O)c3cccc(N)n3)c(N3CC(C)CC34CCC4)n2)c1 (single isomer, unassigned) [Compound 2269, N-[(6-amino-2-pyridyl)sulfonyl]-6-(3-fluoro-5-isobutoxy-phenyl)-2-(6-methyl-8-azaspiro[3.4]octa N-8-yl)pyridine-3-carboxamide]",–,< 3000
"CC(C)COc1cc(F)cc(-c2ccc(C(=O)NS(=O)(=O)N3C[C@H]4C[C@@H]3CO4)c(N3C[C@@H](C)CC3(C)C)n2)c1 [Compound 2347, 6-(3-fluoro-5-isobutoxy-phenyl)-N—[[(1R,4R)-2-oxa-5-azabicyclo[2.2.1]heptan-5-yl]sulfonyl]-2-[(4S)-2,2,4-trimethylpyrrolidin-1-yl]pyridine-3-carboxamide]",–,< 3000
"CC(C)COc1cc(F)cc(-c2ccc(C(=O)NS(=O)(=O)c3cccc(N)n3)c(N3CCC[C@@H]3C)n2)c1 [Compound 421, N-[(6-amino-2-pyridyl)sulfonyl]-6-(3-fluoro-5-isobutoxy-phenyl)-2-[(2S)-2-methylpyrrolidin-1-yl]pyridine-3-carboxamide]",+++ (“+++” means <3 uM),–
